Source: paper PMC10299128, “The Parallel Structure–Activity Relationship Screening of Three Compounds Identifies the Common Agonist Pharmacophore of Pyrrolidine Bis-Cyclic Guanidine Melanocortin-3 Receptor (MC3R) Small-Molecule Ligands” (International Journal of Molecular Sciences, 2023)

Tests used:
[1] = biological target: mMC1R (Mus musculus, UniProt Q01727); assay: AlphaScreen cAMP agonist assay, HEK293 cells stably expressing mMC1R; conditions: for mMC1R partial agonist efficacy bin: sigmoidal curve, efficacy <90% of NDP-MSH
Chain of mMC1R (Q01727 whole entry): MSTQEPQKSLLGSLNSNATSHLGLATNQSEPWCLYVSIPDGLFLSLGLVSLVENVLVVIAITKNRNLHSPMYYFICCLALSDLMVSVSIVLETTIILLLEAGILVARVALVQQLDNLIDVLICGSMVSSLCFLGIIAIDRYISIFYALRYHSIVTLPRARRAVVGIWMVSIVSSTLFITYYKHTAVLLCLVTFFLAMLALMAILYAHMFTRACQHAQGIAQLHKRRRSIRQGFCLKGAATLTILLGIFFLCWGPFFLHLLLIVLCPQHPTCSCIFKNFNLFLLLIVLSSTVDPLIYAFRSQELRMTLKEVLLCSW

[2] = biological target: mMC3R (Mus musculus, UniProt P33033); assay: AlphaScreen cAMP agonist assay, HEK293 cells stably expressing mMC3R; conditions: for mMC3R percent maximal stimulatory response (compared to NDP-MSH): at 1 mM, not enough stimulation to determine EC50; for mMC3R partial agonist efficacy bin: sigmoidal curve, efficacy <90% of NDP-MSH
Chain of mMC3R (P33033 whole entry): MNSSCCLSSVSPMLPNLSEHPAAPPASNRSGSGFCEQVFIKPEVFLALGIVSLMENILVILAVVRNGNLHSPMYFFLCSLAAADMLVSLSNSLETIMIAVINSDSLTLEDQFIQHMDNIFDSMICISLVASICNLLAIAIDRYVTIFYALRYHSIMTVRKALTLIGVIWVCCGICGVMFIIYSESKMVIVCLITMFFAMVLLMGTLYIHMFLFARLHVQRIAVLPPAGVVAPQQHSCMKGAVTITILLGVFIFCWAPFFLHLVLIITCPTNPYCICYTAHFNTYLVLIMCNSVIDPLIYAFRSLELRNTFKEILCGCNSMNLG

[3] = biological target: mMC4R (Mus musculus, UniProt P56450); assay: AlphaScreen cAMP agonist assay, HEK293 cells stably expressing mMC4R; conditions: for mMC4R percent maximal stimulatory response (compared to NDP-MSH): at 1 mM, not enough stimulation to determine EC50
Chain of mMC4R (P56450 whole entry): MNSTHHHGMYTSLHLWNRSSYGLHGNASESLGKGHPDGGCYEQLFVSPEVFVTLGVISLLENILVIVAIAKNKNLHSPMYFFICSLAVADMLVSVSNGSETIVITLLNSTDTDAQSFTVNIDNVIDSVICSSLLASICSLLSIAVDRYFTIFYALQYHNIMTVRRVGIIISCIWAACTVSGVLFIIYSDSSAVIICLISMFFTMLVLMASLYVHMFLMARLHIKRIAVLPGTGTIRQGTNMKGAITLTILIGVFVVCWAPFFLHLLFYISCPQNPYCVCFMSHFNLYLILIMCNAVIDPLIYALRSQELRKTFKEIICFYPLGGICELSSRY
Protocol: Pyrrolidine bis-cyclic guanidine compounds were assessed for biological activity using the AlphaScreen cAMP kit with HEK293 cells stably expressing the mMC1R, mMC3R, mMC4R, or mMC5R, as previously described [37, 38, 39]. […] Compounds were assayed for agonist activity in a 7-point dose–response curve (10^−3 to 10^−9 M). […] The purified compounds were dissolved in DMSO at a stock concentration of 10^−1 M and assayed using HEK293 cells stably expressing the mouse MC1R, MC3R, MC4R, and MC5R using the AlphaScreen cAMP bioassay (PerkinElmer, Waltham, MA, USA) according to the manufacturer’s instructions and as previously described [37, 38, 39].
Briefly, cells 70−90% confluent were dislodged with Versene (Gibco, Waltham, MA, USA) at 37 °C and 10,000 cells/well were plated in a 384-well plate (Optiplate, PerkinElmer, Waltham, MA, USA) with 10 μL of freshly prepared stimulation buffer (1× HBSS, 5 mM HEPES, 0.5 mM IBMX, 0.1% BSA, pH = 7.4) with 0.5 μg of anti-cAMP acceptor beads per well. The cells were stimulated with the addition of 5 μL of stimulation buffer containing compound or forskolin (10^−4 M) and incubated in the dark at room temperature for 2 h. Following stimulation, streptavidin donor beads (0.5 μg) and biotinylated cAMP (0.62 μmol) were added to the wells in a green light environment with 10 μL of lysis buffer (5 mM HEPES, 0.3% Tween-20, 0.1% BSA, pH = 7.4) and the plates were incubated in the dark at room temperature for an additional 2 h. Plates were read on a Enspire (PerkinElmer, Waltham, MA, USA) Alpha plate reader using a pre-normalized assay protocol (set by the manufacturer).

[4] = biological target: mMC5R (Mus musculus, UniProt P41149); assay: AlphaScreen cAMP agonist assay, HEK293 cells stably expressing mMC5R; conditions: for mMC5R partial agonist efficacy bin: sigmoidal curve, efficacy <90% of NDP-MSH
Chain of mMC5R (P41149 whole entry): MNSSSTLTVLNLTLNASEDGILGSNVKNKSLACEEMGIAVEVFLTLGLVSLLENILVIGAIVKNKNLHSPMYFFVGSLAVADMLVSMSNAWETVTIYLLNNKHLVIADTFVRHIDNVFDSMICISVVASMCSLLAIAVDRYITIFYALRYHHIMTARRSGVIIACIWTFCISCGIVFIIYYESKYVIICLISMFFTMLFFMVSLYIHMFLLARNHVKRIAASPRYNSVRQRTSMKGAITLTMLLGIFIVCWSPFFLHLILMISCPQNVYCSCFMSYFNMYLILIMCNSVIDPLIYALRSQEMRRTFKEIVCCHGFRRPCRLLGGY

[5] = at 1 mM, not enough stimulation to determine EC50

CC(C)C[C@@H]1CNC(=N)N1C[C@@H]1CCCN1C[C@H](Cc1ccccc1)N1C[C@H]([C@@H](C)O)N(CC2CCC(C(C)(C)C)CC2)C1=N (some centres unmarked) [Compound 2718.035]
EC50 [1]: 3700 ± 700 nM | fold decreased mMC1R agonist potency ([1]; relative to 2718.001): 12 fold | mMC3R percent maximal stimulatory response (compared to NDP-MSH) [2]: 55% @ 1 mM | mMC4R percent maximal stimulatory response (compared to NDP-MSH) [3]: 55% @ 1 mM | EC50 [4]: 23 µM | mMC5R partial agonist efficacy bin [4]: B (B (51–90% receptor activation))

CC(C)C[C@H]1CNC(=N)N1C[C@@H]1CCCN1C[C@@H](Cc1ccccc1)N1C[C@@H]([C@H](C)O)N(CC2CCC(C(C)(C)C)CC2)C1=N (some centres unmarked) [Compound 2718.033]
EC50 [1]: 380 ± 40 nM | EC50 [2]: 3.8 ± 0.6 µM | mMC3R partial agonist efficacy bin [2]: B (B (51–90% receptor activation)) | mMC4R percent maximal stimulatory response (compared to NDP-MSH) [3]: 60% @ 1 mM | EC50 [4]: 0.9 ± 0.3 µM

CCC[C@H]1CN([C@@H](CC2CCCCC2)CN2CCC[C@@H]2CN2C(=N)NC[C@@H]2C(C)C)C(=N)N1CC1CCC(C(C)(C)C)CC1 (some centres unmarked) [Compound 2718.054]
mMC1R percent maximal stimulatory response (compared to NDP-MSH) [1, 5]: 65% @ 1 mM | mMC3R percent maximal stimulatory response (compared to NDP-MSH) [2]: 55% @ 1 mM | mMC4R percent maximal stimulatory response (compared to NDP-MSH) [3]: 60% @ 1 mM | EC50 [4]: 3.5 ± 0.3 µM

CC(C)C[C@@H]1CNC(=N)N1C[C@@H]1CCCN1C[C@@H](CC1CCCCC1)N1C[C@H]([C@@H](C)O)N(CC2CCC(C(C)(C)C)CC2)C1=N (some centres unmarked) [Compound 2718.045]
EC50 [1]: 1000 ± 100 nM | fold decreased mMC1R agonist potency ([1]; relative to 2718.002): 4 fold | EC50 [2]: 3.5 ± 0.2 µM | mMC3R partial agonist efficacy bin [2]: B (B (51–90% receptor activation)) | mMC4R percent maximal stimulatory response (compared to NDP-MSH) [3]: 50% @ 1 mM | EC50 [4]: 2.2 ± 0.7 µM | fold decreased mMC5R agonist potency ([4]; relative to 2718.002): 8 fold

CCC[C@@H]1CN([C@H](CC2CCCCC2)CN2CCC[C@H]2CN2C(=N)NC[C@H]2C(C)C)C(=N)N1CC [Compound 2718.014]
EC50 [1]: 9000 ± 3000 nM | mMC1R partial agonist efficacy bin [1]: B (B (51–90% receptor activation)) | mMC3R percent maximal stimulatory response (compared to NDP-MSH) [2]: 20% @ 1 mM | EC50 [3]: > 1 mM | mMC5R percent maximal stimulatory response (compared to NDP-MSH) [4, 5]: 50% @ 1 mM

CCC[C@@H]1CN(CCN2CCC[C@H]2CN2C(=N)NC[C@H]2C(C)C)C(=N)N1CC1CCC(C(C)(C)C)CC1 (some centres unmarked) [Compound 2718.028]
EC50 [1]: 10000 nM | mMC1R partial agonist efficacy bin [1]: B (B (51–90% receptor activation)) | mMC3R percent maximal stimulatory response (compared to NDP-MSH) [2]: 35% @ 1 mM | mMC4R percent maximal stimulatory response (compared to NDP-MSH) [3]: 35% @ 1 mM | EC50 [4]: 19 µM | mMC5R partial agonist efficacy bin [4]: B (B (51–90% receptor activation))

CC(C)C[C@H]1CNC(=N)N1C[C@@H]1CCCN1C[C@H](Cc1ccccc1)N1C[C@H]([C@@H](C)O)N(CC2CCC(C(C)(C)C)CC2)C1=N (some centres unmarked) [Compound 2718.042]
EC50 [1]: 2900 ± 200 nM | fold decreased mMC1R agonist potency ([1]; relative to 2718.001): 9 fold | mMC3R percent maximal stimulatory response (compared to NDP-MSH) [2]: 65% @ 1 mM | mMC4R percent maximal stimulatory response (compared to NDP-MSH) [3]: 65% @ 1 mM | EC50 [4]: 21.3 µM | mMC5R partial agonist efficacy bin [4]: B (B (51–90% receptor activation))

CC(C)C[C@@H]1CNC(=N)N1C[C@H]1CCCN1C[C@@H](Cc1ccccc1)N1C[C@H]([C@@H](C)O)N(CC2CCC(C(C)(C)C)CC2)C1=N (some centres unmarked) [Compound 2718.036]
EC50 [1]: 900 ± 300 nM | mMC3R percent maximal stimulatory response (compared to NDP-MSH) [2]: 50% @ 1 mM | mMC4R percent maximal stimulatory response (compared to NDP-MSH) [3]: 55% @ 1 mM | EC50 [4]: 5.8 ± 0.9 µM | mMC5R partial agonist efficacy bin [4]: B (B (51–90% receptor activation))
